According to US11254781B2, “Urethane-crosslinked biodegradable elastomers” (Massachusetts Institute of Technology, priority 2011, dated 2022):

Tested on: adult male Wistar rats
Settings: rat, in vivo
Method: In vivo cardiac biocompatibility of PGSU-SF films All surgical procedures were approved by the IACUC of the Children's Hospital Boston and performed according to the NIH Guidelines for the Care and Use of Laboratory Animals Briefly, adult male Wistar rats (Charles River Laboratories, Wilmington, Mass.) were anesthetized with an intraperitoneal injection of ketamine (100 mg/kg) and xylazine (10 mg/kg), followed by intratracheal intubation. Rats were ventilated with a small animal respirator (Harvard Apparatus, Holliston, Mass.), and anesthesia was maintained with 0.5 to 1.0% isofluorane and 100% oxygen. The heart was accessed through an anterior right-sided thoracotomy, followed by the removal of the pericardial sac. A 1 mm thick and 7 mm in diameter porous PGSU-SF 1:0.3 patch was sutured on the left ventricle (LV) epicardial surface of the rat heart using three 7-0 polypropylene monofilament stitches. The chest wall was closed in layers, and the thoracic cavity evacuated with a 18-gauge intravenous catheter Animals were sacrificed at 1 and 4 weeks (n=4 per time point) after the surgical procedure with CO2, followed by immediate excision of the heart. Tissue sections transverse to the patch and heart surface were stained with Hematoxylin and Eosin stain (H&E). […]

poly (glycerol sebacate urethane) [PGSU-SF 1:0.3]
cardiac function (echocardiography): No changes | chest adhesions: Moderate
